Tested on: K98450-129-R-PDC complex spheroid growth, percent test/control
Assay: Anticancer human tumor K98450-129-R-PDC patient-derived colon adenocarcinoma cell line growth inhibition [RAS]
Settings: for IC50: curve of first compound; for viability, T/C: stronger effect = lower value; active = viability on the fitted dose curve at most 10% of control; inactive = the rest
Summary of the method: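 Tumour cells grown as complex spheroids with HUVEC endothelial cells and mesenchymal stem cells, treated with RAS pathway inhibitor combinations. Each agent spans half-log steps from near clinical Cmax, or 10 microM where Cmax is unknown.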

[1] = second compound 0.000949 µM, first compound 0.0316 µM
[2] = second compound 0.000949 µM, first compound 0.1 µM
[3] = second compound 0.000949 µM, first compound 0.316 µM
[4] = second compound 0.000949 µM, first compound 1 µM
[5] = second compound 0.000949 µM, first compound 3.16 µM
[6] = second compound 0.000949 µM, first compound 10 µM
[7] = second compound 0.003 µM, first compound 0.0316 µM
[8] = second compound 0.003 µM, first compound 0.1 µM
[9] = second compound 0.003 µM, first compound 0.316 µM
[10] = second compound 0.003 µM, first compound 1 µM
[11] = second compound 0.003 µM, first compound 3.16 µM
[12] = second compound 0.003 µM, first compound 10 µM
[13] = second compound 0.00949 µM, first compound 0.0316 µM
[14] = second compound 0.00949 µM, first compound 0.1 µM
[15] = second compound 0.00949 µM, first compound 0.316 µM
[16] = second compound 0.00949 µM, first compound 1 µM
[17] = second compound 0.00949 µM, first compound 3.16 µM
[18] = second compound 0.00949 µM, first compound 10 µM
[19] = second compound 0.03 µM, first compound 0.0316 µM
[20] = second compound 0.03 µM, first compound 0.1 µM
[21] = second compound 0.03 µM, first compound 0.316 µM
[22] = second compound 0.03 µM, first compound 1 µM
[23] = second compound 0.03 µM, first compound 3.16 µM
[24] = second compound 0.03 µM, first compound 10 µM
[25] = second compound 0.0949 µM, first compound 0.0316 µM
[26] = second compound 0.0949 µM, first compound 0.1 µM
[27] = second compound 0.0949 µM, first compound 0.316 µM
[28] = second compound 0.0949 µM, first compound 1 µM
[29] = second compound 0.0949 µM, first compound 3.16 µM
[30] = second compound 0.0949 µM, first compound 10 µM
[31] = second compound 0.3 µM, first compound 0.0316 µM
[32] = second compound 0.3 µM, first compound 0.1 µM
[33] = second compound 0.3 µM, first compound 0.316 µM
[34] = second compound 0.3 µM, first compound 1 µM
[35] = second compound 0.3 µM, first compound 3.16 µM
[36] = second compound 0.3 µM, first compound 10 µM
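Note: spheroids exposed to agents for seven days before the viability readout.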
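Throughout, for viability, T/C: luminescence used as a proxy for viable cell amount.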

CC1(O)CCCC1n1c(=O)c(C(F)F)cc2cnc(NC3CCN(S(C)(=O)=O)CC3)nc21 (stereo unspecified) + CCn1c(-c2cccnc2C(C)OC)c2c3cc(ccc31)N1CCOC(CC(NC(=O)C(C(C)C)N(C)C(=O)C3(F)CCN(C(=O)C#CC(C)(C)N(C)C)CC3)C(=O)N3CCCC(N3)C(=O)OCC(C)(C)C2)C1
4.32 µM: IC50 (second compound 0.000949 µM)
< 0.0316 µM: IC50 (second compound 0.00949 µM) | IC50 (second compound 0.03 µM) | IC50 (second compound 0.0949 µM) | IC50 (second compound 0.3 µM)
inactive: viability, T/C [1] 76.1% | viability, T/C [2] 64% | viability, T/C [3] 68.3% | viability, T/C [4] 59.1% | viability, T/C [5] 51.5% | viability, T/C [6] 44.4% | viability, T/C [7] 58.2% | viability, T/C [8] 55.6% | viability, T/C [9] 52.6% | viability, T/C [10] 38.6% | viability, T/C [11] 34.7% | viability, T/C [12] 31% | viability, T/C [13] 44.8% | viability, T/C [14] 38.5% | viability, T/C [15] 38.3% | viability, T/C [16] 28.5% | viability, T/C [17] 29.3% | viability, T/C [18] 27.1% | viability, T/C [19] 37.4% | viability, T/C [20] 41.1% | viability, T/C [21] 30.1% | viability, T/C [22] 26.1% | viability, T/C [23] 31.4% | viability, T/C [24] 28.1% | viability, T/C [25] 31.5% | viability, T/C [26] 31.9% | viability, T/C [27] 32.2% | viability, T/C [28] 25.3% | viability, T/C [29] 29.8% | viability, T/C [30] 22.7% | viability, T/C [31] 31.9% | viability, T/C [32] 33.7% | viability, T/C [33] 32.6% | viability, T/C [34] 26.8% | viability, T/C [35] 29.5% | viability, T/C [36] 19.6%
0.376 µM: IC50 (second compound 0.003 µM)

CCC(CC)c1cc(NC2CCC(N)C2)n2nccc2n1 (stereo unspecified) + CCn1c(-c2cccnc2C(C)OC)c2c3cc(ccc31)N1CCOC(CC(NC(=O)C(C(C)C)N(C)C(=O)C3(F)CCN(C(=O)C#CC(C)(C)N(C)C)CC3)C(=O)N3CCCC(N3)C(=O)OCC(C)(C)C2)C1
inactive: viability, T/C [1] 77.1% | viability, T/C [2] 72.7% | viability, T/C [3] 73% | viability, T/C [4] 59.7% | viability, T/C [5] 52.3% | viability, T/C [6] 11.8% | viability, T/C [7] 65.2% | viability, T/C [8] 59% | viability, T/C [9] 56.8% | viability, T/C [10] 39.4% | viability, T/C [11] 36.9% | viability, T/C [12] 10.6% | viability, T/C [13] 44.4% | viability, T/C [14] 53.3% | viability, T/C [15] 48.8% | viability, T/C [16] 35.4% | viability, T/C [17] 20.8% | viability, T/C [18] 11.9% | viability, T/C [19] 33.7% | viability, T/C [20] 42.4% | viability, T/C [21] 40.2% | viability, T/C [22] 23.1% | viability, T/C [23] 20.5% | viability, T/C [24] 10.4% | viability, T/C [25] 29.9% | viability, T/C [26] 33.4% | viability, T/C [27] 38.3% | viability, T/C [28] 36.3% | viability, T/C [29] 11.8% | viability, T/C [31] 34.1% | viability, T/C [32] 36.5% | viability, T/C [33] 39.2% | viability, T/C [34] 31.3% | viability, T/C [35] 12.7%
2.93 µM: IC50 (second compound 0.000949 µM)
< 0.0316 µM: IC50 (second compound 0.00949 µM) | IC50 (second compound 0.03 µM) | IC50 (second compound 0.0949 µM) | IC50 (second compound 0.3 µM)
0.545 µM: IC50 (second compound 0.003 µM)
active: viability, T/C [30] 9.38% | viability, T/C [36] 9.36%

CCN1CCN(Cc2ccc(Nc3ncc(F)c(-c4cc(F)c5nc(C)n(C(C)C)c5c4)n3)nc2)CC1 + CCn1c(-c2cccnc2C(C)OC)c2c3cc(ccc31)N1CCOC(CC(NC(=O)C(C(C)C)N(C)C(=O)C3(F)CCN(C(=O)C#CC(C)(C)N(C)C)CC3)C(=O)N3CCCC(N3)C(=O)OCC(C)(C)C2)C1
0.0132 µM: IC50 (second compound 0.003 µM)
inactive: viability, T/C (second compound 0.000949 µM, first compound 0.00316 µM) 72.8% | viability, T/C (second compound 0.000949 µM, first compound 0.01 µM) 68.7% | viability, T/C [1] 70.3% | viability, T/C [2] 54.4% | viability, T/C [3] 44.9% | viability, T/C [4] 52.2% | viability, T/C (second compound 0.003 µM, first compound 0.00316 µM) 60% | viability, T/C (second compound 0.003 µM, first compound 0.01 µM) 52.6% | viability, T/C [7] 48.2% | viability, T/C [8] 39.2% | viability, T/C [9] 43% | viability, T/C [10] 47.4% | viability, T/C (second compound 0.00949 µM, first compound 0.00316 µM) 49.7% | viability, T/C (second compound 0.00949 µM, first compound 0.01 µM) 41.7% | viability, T/C [13] 38.9% | viability, T/C [14] 34.5% | viability, T/C [15] 36.6% | viability, T/C [16] 43.4% | viability, T/C (second compound 0.03 µM, first compound 0.00316 µM) 37.6% | viability, T/C (second compound 0.03 µM, first compound 0.01 µM) 37.6% | viability, T/C [19] 34.3% | viability, T/C [20] 35.3% | viability, T/C [21] 43.8% | viability, T/C [22] 45.9% | viability, T/C (second compound 0.0949 µM, first compound 0.00316 µM) 39.6% | viability, T/C (second compound 0.0949 µM, first compound 0.01 µM) 34.4% | viability, T/C [25] 34.5% | viability, T/C [26] 32.1% | viability, T/C [27] 38.9% | viability, T/C [28] 48.8% | viability, T/C (second compound 0.3 µM, first compound 0.00316 µM) 30.8% | viability, T/C (second compound 0.3 µM, first compound 0.01 µM) 32.1% | viability, T/C [31] 32.1% | viability, T/C [32] 28.6% | viability, T/C [33] 36.1% | viability, T/C [34] 41.8%
0.239 µM: IC50 (second compound 0.000949 µM)
< 0.00316 µM: IC50 (second compound 0.00949 µM) | IC50 (second compound 0.03 µM) | IC50 (second compound 0.0949 µM) | IC50 (second compound 0.3 µM)

From PubChem BioAssay AID2060891 (Molecular Pharmacology Branch, DTP, NCI, 2025)
